# Reference: ChEMBL document CHEMBL5500384, “New synergistic benzoquinone scaffolds as inhibitors of mycobacterial cytochrome bc1 complex to treat multi-drug resistant tuberculosis” (Eur J Med Chem, 2024)
# Active and inactive are the calls of the source. No cut-off for these calls is given here.
# Experiments:
# [1] = Acute toxicity in Albino mouse assessed as change in LDH level at 50 to 2000 mg/kg, po measured after 14 days (reference value: 1052 IU/L); format: organism-based; conditions: in vivo, 336 h, dose 50-2000 mg/kg, time 14 day
# [2] = Renal toxicity in Albino mouse assessed as change in tubular capillaries at 50 to 2000 mg/kg, po measured after 14 days; format: organism-based; conditions: in vivo, 336 h, dose 50-2000 mg/kg, time 14 day
# [3] = Hepatotoxicity in Albino mouse assessed as change in hepatocytes at 50 to 2000 mg/kg, po measured after 14 days; format: toxicity, organism-based; conditions: in vivo, 336 h, dose 50-2000 mg/kg, time 14 day
# [4] = Hepatotoxicity in Albino mouse assessed as change in central vein at 50 to 2000 mg/kg, po measured after 14 days; format: toxicity, organism-based; conditions: in vivo, 336 h, dose 50-2000 mg/kg, time 14 day
# [5] = Acute toxicity in Albino mouse assessed as change in eosinophils at 50 to 2000 mg/kg, po measured after 14 days (reference value: 3%); format: organism-based; conditions: in vivo, 336 h, dose 50-2000 mg/kg, time 14 day
# [6] = Acute toxicity in Albino mouse assessed as mortality at 2000 mg/kg, po after 2 to 4 hrs; format: organism-based; conditions: in vivo, time 2-4 hrs
# [7] = Acute toxicity in Albino mouse assessed as change in platelet count at 50 to 2000 mg/kg, po measured after 14 days (reference value: 3.24 mm3); format: organism-based; design: unit not given here; conditions: in vivo, 336 h, dose 50-2000 mg/kg, time 14 day
# [8] = Renal toxicity in Albino mouse assessed as structural absorbability abnormalities at 50 to 2000 mg/kg, po measured after 14 days; format: organism-based; conditions: in vivo, 336 h, dose 50-2000 mg/kg, time 14 day
# [9] = system: Mycolicibacterium smegmatis; test: Antibacterial activity against Mycobacterium smegmatis ATCC 14468 assessed as log2 fold change in 24-methylenecholesterol metabolite level by mass spectrometry analysis; format: functional
# [10] = Acute toxicity in Albino mouse assessed as change in neutrophils at 50 to 2000 mg/kg, po measured after 14 days (reference value: 75%); format: organism-based; conditions: in vivo, 336 h, dose 50-2000 mg/kg, time 14 day
# [11] = system: Mycolicibacterium smegmatis; test: Antibacterial activity against Mycobacterium smegmatis ATCC 14468 assessed as reduction in bacterial growth at 3 ug/ml measured every 6 hrs by spectrometry analysis; format: functional, organism-based; conditions: dose 3.0 µg/ml
# [12] = system: Mycolicibacterium smegmatis; test: Antibacterial activity against Mycobacterium smegmatis ATCC 14468 assessed as log2 fold change in l-tyrosine metabolite level by mass spectrometry analysis; format: functional
# [13] = Hepatotoxicity in Albino mouse assessed as change in hepatic artery at 50 to 2000 mg/kg, po measured after 14 days; format: toxicity, organism-based, Liver; conditions: in vivo, 336 h, dose 50-2000 mg/kg, time 14 day
# [14] = Acute toxicity in Albino mouse assessed as change in serum creatine level at 50 to 2000 mg/kg, po measured after 14 days (reference value: 0.9 mg/dl); format: organism-based; conditions: in vivo, 336 h, dose 50-2000 mg/kg, time 14 day
# [15] = system: Mycolicibacterium smegmatis; test: Antibacterial activity against Mycobacterium smegmatis ATCC 14468 assessed as log2 fold change in beta-alanine metabolite level by mass spectrometry analysis; format: functional
# [16] = Cytotoxicity against african green monkey Vero cells assessed as cell viability at 100 ug/ml by MTT assay; format: toxicity, cell-based; conditions: chlorocebus sabaeus, at 100 µg/mL, read-out: Activity
# [17] = Pulmonary toxicity in Albino mouse assessed as change in squamous pneumocytes at 50 to 2000 mg/kg, po measured after 14 days; format: organism-based; conditions: in vivo, 336 h, dose 50-2000 mg/kg, time 14 day
# [18] = Pulmonary toxicity in Albino mouse assessed as appearance of cilia at 50 to 2000 mg/kg, po measured after 14 days; format: organism-based; conditions: in vivo, 336 h, dose 50-2000 mg/kg, time 14 day
# [19] = Cytotoxicity against african green monkey Vero cells by MTT assay; format: toxicity, cell-based; conditions: chlorocebus sabaeus
# [20] = system: Mycolicibacterium smegmatis; test: Antibacterial activity against Mycobacterium smegmatis ATCC 14468 assessed as log2 fold change in dihydroorotate dehydrogenase expression at 3 ug/ml incubated for 12 hrs by mass spectrometric analysis; format: functional; conditions: dose 3 µg/ml
# [21] = Acute toxicity in Albino mouse assessed as change in ESR at 50 to 2000 mg/kg, po measured after 14 days (reference value: 10 millimeter); format: organism-based; conditions: in vivo, 336 h, dose 50-2000 mg/kg, time 14 day
# [22] = system: Mycolicibacterium smegmatis; test: Antibacterial activity against Mycobacterium smegmatis ATCC 14468 assessed as log2 fold change in membrane transport protein expression at 3 ug/ml incubated for 12 hrs by mass spectrometric analysis; format: functional; conditions: dose 3 µg/ml
# [23] = system: Mycolicibacterium smegmatis; test: Antibacterial activity against Mycobacterium smegmatis ATCC 14468 assessed as log2 fold change in MmpL protein expression at 3 ug/ml incubated for 12 hrs by mass spectrometric analysis; format: functional; conditions: dose 3 µg/ml
# [24] = system: Mycolicibacterium smegmatis; test: Antibacterial activity against Mycobacterium smegmatis ATCC 14468 assessed as log2 fold change in ABC transporter ATP binding protein expression at 3 ug/ml incubated for 12 hrs by mass spectrometric analysis; format: functional; conditions: dose 3 µg/ml
# [25] = Renal toxicity in Albino mouse assessed as extravasation of RBC at 50 to 2000 mg/kg, po measured after 14 days; format: organism-based, Erythrocyte; conditions: in vivo, 336 h, dose 50-2000 mg/kg, time 14 day
# [26] = Renal toxicity in Albino mouse assessed as change in proximal convoluted tubules at 50 to 2000 mg/kg, po measured after 14 days; format: organism-based; conditions: in vivo, 336 h, dose 50-2000 mg/kg, time 14 day
# [27] = system: Mycolicibacterium smegmatis; test: Antibacterial activity against Mycobacterium smegmatis ATCC 14468 assessed as log2 fold change in cytochrome bd-type quinol oxidase, subunit 1 expression at 3 ug/ml incubated for 12 hrs by mass spectrometric analysis; format: functional; conditions: dose 3 µg/ml
# [28] = Cytotoxicity against african green monkey Vero cells assessed as cell viability at 50 ug/ml by MTT assay; format: toxicity, cell-based; conditions: chlorocebus sabaeus, at 50 µg/mL, read-out: Activity
# [29] = Renal toxicity in Albino mouse assessed as change in renal tubules at 50 to 2000 mg/kg, po measured after 14 days; format: organism-based; conditions: in vivo, 336 h, dose 50-2000 mg/kg, time 14 day
# [30] = system: Mycolicibacterium smegmatis; test: Antibacterial activity against Mycobacterium smegmatis ATCC 14468 assessed as log2 fold change in probable cytochrome c oxidase subunit 3 expression at 3 ug/ml incubated for 12 hrs by mass spectrometric analysis; format: functional; conditions: dose 3 µg/ml
# [31] = Renal toxicity in Albino mouse assessed as change in distal convoluted tubules at 50 to 2000 mg/kg, po measured after 14 days; format: organism-based; conditions: in vivo, 336 h, dose 50-2000 mg/kg, time 14 day
# [32] = system: Mycolicibacterium smegmatis; test: Antibacterial activity against Mycobacterium smegmatis ATCC 14468 assessed as reduction in bacterial growth at 12 ug/ml incubated for 48 hrs by spectrometry analysis; format: functional; design: scale not given: the % may be the effect or the level left; conditions: dose 12 µg/ml
# [33] = Acute toxicity in Albino mouse assessed as change in RBC count measured per million cells at 50 to 2000 mg/kg, po measured after 14 days (reference value: 9.15 microL); format: organism-based, Erythrocyte; conditions: in vivo, 336 h, dose 50-2000 mg/kg, time 14 day
# [34] = Pulmonary toxicity in Albino mouse assessed as change in alveolar sacs at 50 to 2000 mg/kg, po measured after 14 days; format: organism-based; conditions: in vivo, 336 h, dose 50-2000 mg/kg, time 14 day
# [35] = Hepatotoxicity in Albino mouse assessed as change in bile duct at 50 to 2000 mg/kg, po measured after 14 days; format: toxicity, organism-based, Liver; conditions: in vivo, 336 h, dose 50-2000 mg/kg, time 14 day
# [36] = Acute toxicity in Albino mouse assessed as change in serum urea level at 50 to 2000 mg/kg, po measured after 14 days (reference value: 46 mg/dl); format: organism-based; conditions: in vivo, 336 h, dose 50-2000 mg/kg, time 14 day
# [37] = system: Mycolicibacterium smegmatis; test: Antibacterial activity against Mycobacterium smegmatis ATCC 14468 assessed as log2 fold change in DL-gamma-Amino-beta-hydroxybutyric acid metabolite level by mass spectrometry analysis; format: functional
# [38] = system: Mycolicibacterium smegmatis; test: Antibacterial activity against Mycobacterium smegmatis ATCC 14468 assessed as log2 fold change in L-(-)-methionine metabolite level by mass spectrometry analysis; format: functional
# [39] = system: Mycolicibacterium smegmatis; test: Antibacterial activity against Mycobacterium smegmatis ATCC 14468 assessed as log2 fold change in DppB expression at 3 ug/ml incubated for 12 hrs by mass spectrometric analysis; format: functional; conditions: dose 3 µg/ml
# [40] = Cytotoxicity against african green monkey Vero cells assessed as cell viability at 6.25 ug/ml by MTT assay; format: toxicity, cell-based; conditions: chlorocebus sabaeus, at 6.25 µg/mL, read-out: Activity
Structure (SMILES),Activity [1] [IU/L],Activity [2],Activity [4],Activity [5] [%],Activity [8],log2FC [9],Activity [10] [%],Activity [11],log2FC [12],Activity [13],Activity [14] [mg/dL],log2FC [15],viability at 100 ug/ml [16] [%],Activity [17],Activity [18],log2FC [20],Activity [21] [millimeter/hr],log2FC [22],log2FC [23],log2FC [24],also measured
COc1ccc(C2C(Cl)C(=O)N2C2=C(Cl)C(=O)c3ccccc3C2=O)cc1 (stereo not given),842,Non-Toxic,Non-Toxic,4,Non-Toxic,1.74,62,inactive,-1.68,Non-Toxic,0.8,-2.47,0.7,Non-Toxic,Non-Toxic,-1.89,15,-6.64,-1.45,-1.98,Activity [3]: Non-Toxic; Activity [6]: Toxic; Activity [7]: 5.82; Activity [19]: Dose-Dependent Effect; Activity [25]: Non-Toxic; Activity [26]: Non-Toxic; log2FC [27]: 5.6; viability at 50 ug/ml [28]: 8.7%; Activity [29]: Non-Toxic; log2FC [30]: 2.57; Activity [31]: Non-Toxic; Activity [32]: 80%; Activity [33]: 9.4; Activity [34]: Non-Toxic; Activity [35]: Non-Toxic; Activity [36]: 50 mg/dL; log2FC [37]: -2.72; log2FC [38]: -5.44; log2FC [39]: -6.64; viability at 6.25 ug/ml [40]: 100%
CN(C)c1ccc(C2C(Cl)C(=O)N2C2=C(Cl)C(=O)c3ccccc3C2=O)cc1 (stereo not given),756,Non-Toxic,Non-Toxic,5,Non-Toxic,0.69,60,inactive,-1.13,Non-Toxic,0.7,-1.29,10.2,Non-Toxic,Non-Toxic,-1.47,16,-6.64,-6.64,-6.64,Activity [6]: Toxic; Activity [7]: 6.22; Activity [19]: Dose-Dependent Effect; Activity [25]: Non-Toxic; Activity [26]: Non-Toxic; log2FC [27]: 5.66; viability at 50 ug/ml [28]: 25.4%; Activity [29]: Non-Toxic; log2FC [30]: 2.37; Activity [31]: Non-Toxic; Activity [32]: 80%; Activity [33]: 9.67; Activity [34]: Non-Toxic; Activity [35]: Non-Toxic; Activity [36]: 48 mg/dL; log2FC [37]: -1.1; log2FC [38]: -4.48; log2FC [39]: -6.64; viability at 6.25 ug/ml [40]: 100%
O=C1C(Cl)=C(Cl)C(=O)c2ccccc21 [Dichlon],1030,Non-Toxic,Non-Toxic,3,Non-Toxic,2.01,43,inactive,-1.18,Non-Toxic,0.8,-1,28.7,Non-Toxic,Non-Toxic,-1.92,20,-1.79,-6.64,-2.17,Activity [3]: Non-Toxic; Activity [25]: Non-Toxic; Activity [26]: Non-Toxic; log2FC [27]: 5.6; viability at 50 ug/ml [28]: 36.1%; Activity [29]: Non-Toxic; log2FC [30]: 2.56; Activity [31]: Non-Toxic; Activity [32]: 80%; Activity [34]: Non-Toxic; Activity [35]: Non-Toxic; Activity [36]: 51 mg/dL; log2FC [37]: -2.75; log2FC [38]: -3.97; log2FC [39]: -6.64; viability at 6.25 ug/ml [40]: 100%
